One experiment has as its system SW480 colon cancer cells. Kind of experiment: Cell viability assay (CellTiter-Blue) in SW480 colon cancer cells. The following applies: Homo sapiens, 96 h, four days, CellTiter-Blue. Format: cell-based, human. The procedure:
Representative compounds were screened using the following assay procedure to assess the effect on cell viability as described below.
Each compound was dissolved in DMSO as a 10 mM stock and used to prepare compound source plates. Serial dilution (1:3, 8-point dose-response curves from 10 μM to 0.0045 μM) and compound transfer was performed using the ECHO 550 (Labcyte, Sunnyvale, Calif.) into 96-well clear bottom, black-walled plates (Corning-Costar).
Approximately 2×10^3 SW480 colon cancer cells were seeded into each well and allowed to incubate in the presence or absence of compound for four days at 37° C./5% CO2. Eight replicates of DMSO-treated cells served as controls and cells treated with compound were performed in duplicate.
After incubation, 20 μL of CellTiter-Blue (Promega) was added to each well allowed to incubate for approximately 3 hours. This reagent was a buffered solution which contains resazurin, metabolically active cells were able to reduce rezarurin (blue) into resorufin (pink) which was highly fluorescent. This measured fluorescence was used as a readout for cell viability.
After incubation, the plates were read at Ex 560 nm Em 590 nm (Cytation 3, BioTek). Dose-response curves were generated and EC50 concentration values were calculated using non-linear regression curve fit in the GraphPad Prism (San Diego, Calif.) or Dotmatics' Studies Software (Bishops Stortford, UK). For EC50 of >10 μM, the percent inhibition at 10 μM is provided.
(In general: Resazurin is reduced to fluorescent resorufin, in cell work by metabolically active cells.)

A further experiment concerns IL-6. The experiment in a line: IL-6 inhibition in LPS-stimulated THP-1 monocytes (HTRF). It is filed as cell-based, human. The following applies: Homo sapiens; THP-1 cells, 500 ng/mL LPS, 22 h, HTRF IL-6 readout; 10-point dose-response from 10 μM. Here is the method: Human monocyte cell line (THP-1 cells; Catalog # TIB-202, ATCC, Manassas, Va.) were cultured in Roswell Park Memorial Institute (RPMI) 1640 Medium (Catalog #21870-100, Buffalo, N.Y.) with 1% L-glutamine, 1% HEPES, 1% Sodium Pyruvate, 2% Sodium Bicarbonate supplemented with 100 units/mL penicillin, 50 μg/mL streptomycin, 2-mercaptoethanol (0.05 mM) [basal medium] and 10% fetal bovine serum (Catalog #16140089, Life Technologies, Carlsbad, Calif.) at 37° C. and 5% CO2.
THP-1 cells were cultured in basal media with 1% FBS for 24 hours before the start of the assay. Each compound was dissolved in DMSO as a 10 mM stock and used to prepare compound source plates. Serial dilution (1:3, 10-point dose-response curves starting from 10 μM) and compound transfer was performed using the ECHO 550 (Labcyte, Sunnyvale, Calif.) into 384-well white low volume assay plates (Greiner Bio-One) with appropriate DMSO backfill for a final DMSO concentration of 0.1%. THP-1 cells were plated at 5000 cells/well in the 384-well plates and incubated at 37° C. for 2 h. 500 ng/mL of LPS was added after 2 hours and cells were incubated for another 22 hours at 37° C. Plates were spun in a centrifuge for 1 minute at […] and a mixture of anti-IL6 XL665, and anti-IL6 Cryptate diluted in reconstitution buffer (Cisbio Inc.) was added to each well. Following incubation for 3 hrs at room temperature, Homogeneous Time-Resolved Fluorescence (HTRF) was measured using the Envision (Perkin Elmer) at 665 nm and […]. The ratio of fluorescence at 665 nm to 620 nm was used as a readout for IL6 quantification. All samples were processed in duplicate. Readings were normalized to DMSO treated cells and normalized activities were utilized for EC50 calculations using the dose-response log (inhibitor) vs. response variable slope (four parameters) nonlinear regression feature available in GraphPad Prism 5.0 (or Dotmatics). For EC50 of >10 μM, the percent inhibition at 10 μM is provided.
For orientation: TR-FRET usually uses a lanthanide donor and a delayed reading to cut background.

In experiment [1] the test system is primary human fibroblasts derived from IPF patients (LL29 cells). The experiment in a line: Inhibition of the fibrotic process: αSMA staining in TGF-β1 treated LL29 fibroblasts. It is filed as cell-based. Particulars: Homo sapiens, Fibroblast, 96 h, TGF-β1 20 ng/mL, 4 days, % αSMA positive cells. The source says:
Representative compounds were screened using primary human fibroblasts (derived from IPF patients) treated with TGF-β1 to determine their ability to inhibit the fibrotic process.
Primary human fibroblasts derived from IPF patients (LL29 cells) [^1Xiaoqiu Liu, et. al., “Fibrotic Lung Fibroblasts Show Blunted Inhibition by cAMP Due to Deficient cAMP Response Element-Binding Protein Phosphorylation”, Journal of Pharmacology and Experimental Therapeutics (2005), 315(2), 678-687; ^2Watts, K. L., et. al., “RhoA signaling modulates cyclin D1 expression in human lung fibroblasts; implications for idiopathic pulmonary fibrosis”, Respiratory Research (2006), 7(1), 88] were obtained from American Type Culture Collection (ATCC) and expanded in F12 medium supplemented with 15% Fetal Bovine Serum and Penicillin/Streptomycin.
Each compound was dissolved in DMSO as a 10 mM stock and used to prepare compound source plates. Serial dilution (1:2, 11-point dose-response curves from 10 μM to […]) and compound transfer was performed using the ECHO 550 (Labcyte, Sunnyvale, Calif.) into 384-well clear bottom assay plates (Greiner Bio-One) with appropriate DMSO backfill for a final DMSO concentration of 0.1%. LL29 cells are plated at 1,500 cells/well in 80 μL/well F12 medium supplemented with 1% Fetal Bovine Serum. One hour after addition of the cells, TGF-01 (Peprotech; 20 ng/mL) was added to the plates to induce fibrosis (ref. 1 and 2 above). Wells treated with TGF-β1 and containing DMSO were used as controls. Cells were incubated at 37° C. and 5% CO2 for 4 days. Following incubation for 4 days, SYTOX green nucleic acid stain (Life Technologies [Thermo Fisher Scientific]) was added to the wells at a final concentration of 1 μM and incubated at room temperature for 30 min. Cells were then fixed using 4% formaldehyde (Electron Microscopy Sciences), washed 3 times with PBS followed by blocking and permeabilization using 3% Bovine Serum Albumin (BSA; Sigma) and 0.3% Triton X-100 (Sigma) in PBS. Cells were then stained with antibody specific to α-smooth muscle actin (aSMA; Abcam) (ref. 1 and 2 above) in 3% Bovine Serum Albumin (BSA; Sigma) and 0.3% Triton X-100 (Sigma) in PBS, and incubated overnight at 4° C. Cells were then washed 3 times with PBS, followed by incubation with Alexa Flor-647 conjugated secondary antibody (Life Technologies [Thermo Fisher Scientific]) and DAPI at room temperature for 1 hour. Cells were then washed 3 times with PBS and plates were sealed for imaging. αSMA staining was imaged by excitation at 630 nm and emission at 665 nm and quantified using the Compartmental Analysis program on the CellInsight CX5 (Thermo Scientific). Dead or apoptotic cells were excluded from analysis based on positive SYTOX green staining. % of total cells positive for aSMA were counted in each well and normalized to the average of 11 wells treated with TGF-01 on the same plate using Dotmatics' Studies Software. The normalized averages (fold change over untreated) of 3 replicate wells for each compound concentration were used to create dose-responses curves and EC50 values were calculated using non-linear regression curve fit in the Dotmatics' Studies Software. For EC50 of >10 μM, the percent inhibition at 10 μM is provided.

The test system of experiment [2] is Wnt activity (Sp5-Luc reporter gene, SW480 colon carcinoma cells). The experiment in a line: Screening assay for Wnt activity: Sp5-Luc reporter gene assay in SW480 cells. Format: cell-based, human. The following applies: Homo sapiens, overnight incubation. The source says: The screening assay for Wnt activity is described as follows. Reporter cell lines can be generated by stably transducing cancer cell lines (e.g., colon cancer) or primary cells (e.g., IEC-6 intestinal cells) with a lentiviral construct that includes a Wnt-responsive promoter driving expression of the firefly luciferase gene.
SW480 colon carcinoma cells were transduced with a lentiviral vector expressing luciferase with a human Sp5 promoter consisting of a sequence of eight TCF/LEF binding sites. SW480 cells stably expressing the Sp5-Luc reporter gene and a hygromycin resistance gene were selected by treatment with 150 μg/mL of hygromycin for 7 days. These stably transduced SW480 cells were expanded in cell culture and used for all further screening activities. Each compound was dissolved in DMSO as a 10 mM stock and used to prepare compound source plates. Serial dilution (1:3, 10-point dose-response curves starting from 10 μM) and compound transfer was performed using the ECHO 550 (Labcyte, Sunnyvale, Calif.) into 384-well white solid bottom assay plates (Greiner Bio-One) with appropriate DMSO backfill for a final DMSO concentration of 0.1%. For Sp5-Luc reporter gene assays, the cells were plated at 4,000 cells/well in 384-well plates with medium containing 1% fetal bovine serum and incubated overnight at 37° C. and 5% CO2. Following incubation, 20 μl of BrightGlo luminescence reagent (Promega) was added to each well of the 384-well assay plates. The plates were placed on an orbital shaker for 2 min and then luminescence was quantified using the Envision (Perkin Elmer) plate reader. Readings were normalized to DMSO only treated cells, and normalized activities were utilized for EC50 calculations using the dose-response log (inhibitor) vs. response variable slope (four parameters) nonlinear regression feature available in GraphPad Prism 5.0 (or Dotmatics). For EC50 of >10 μM, the percent inhibition at 10 μM is provided.
Background: In a reporter assay the amount or activity of a reporter protein is the signal.

pEC50: −log10 of the molar value.

In general, pEC50 refers to −log10 of the EC50, conventionally taken in molar units. `Cn1cc(-c2cnc3[nH]nc(-c4cc5c(-c6cccs6)cccc5[nH]4)c3c2)cn1` [Compound 702, 5-(1-Methyl-1H-pyrazol-4-yl)-3-(4-(thiophen-2-yl)-1H-indol-2-yl)-1H-pyrazolo[3,4-b]pyridine]: the pEC50 in the experiment on SW480 colon cancer cells is 5.95; in the experiment on IL-6, 5.86; in experiment [1] it was 6.06; in experiment [2], 5.88.

For `CS(=O)(=O)NCc1cc(F)cc(-c2cccc3[nH]c(-c4n[nH]c5ncc(-c6cncc(NC(=O)C7CC7)c6)cc45)cc23)c1` [Compound 470, N-(5-(3-(4-(3-Fluoro-5-(methylsulfonamidomethyl)phenyl)-1H-indol-2-yl)-1H-pyrazolo[3,4-b]pyridin-5-yl)pyridin-3-yl)cyclopropanecarboxamide], the pEC50 was 5.97 in the experiment with SW480 colon cancer cells, 6.27 in the experiment with IL-6, 5.88 in experiment [1] and 6.32 in experiment [2].

For the compound `Cc1ccncc1-c1cnc2[nH]nc(-c3cc4c(N5CCN(C)CC5)cccc4[nH]3)c2c1` [Compound 205, 3-(4-(4-Methylpiperazin-1-yl)-1H-indol-2-yl)-5-(4-methylpyridin-3-yl)-1H-pyrazolo[3,4-b]pyridine], the negative-log EC50 (pEC50) is 5.49 with SW480 colon cancer cells, 6.32 in the experiment on IL-6, 5.59 in experiment [1] and 5.47 in experiment [2].

As to `CC(C)Nc1cncc(-c2cnc3[nH]nc(-c4cc5c(-c6ccccc6F)cccc5[nH]4)c3c2)c1` [Compound 57, 5-(3-(4-(2-Fluorophenyl)-1H-indol-2-yl)-1H-pyrazolo[3,4-b]pyridin-5-yl)-N-isopropylpyridin-3-amine], the negative logarithm of the EC50 (pEC50) is 5.74 in the experiment on SW480 colon cancer cells, 6.12 in the experiment with IL-6, 6.39 in experiment [1] and 6.43 in experiment [2].

In the case of `CN(C)Cc1cncc(-c2cnc3[nH]nc(-c4cc5c(-c6cccc(F)c6)cccc5[nH]4)c3c2)c1` [Compound 10, 1-(5-(3-(4-(3-Fluorophenyl)-1H-indol-2-yl)-1H-pyrazolo[3,4-b]pyridin-5-yl)pyridin-3-yl)-N,N-dimethylmethanamine], the pEC50 was 5.46 in the experiment with SW480 colon cancer cells, 5.81 with IL-6, 5.36 in experiment [1] and 5.98 in experiment [2].

In the case of `Cc1ncc(-c2cnc3[nH]nc(-c4cc5ncccc5[nH]4)c3c2)n1C` [Compound 997, 5-(1,2-Dimethyl-1H-imidazol-5-yl)-3-(1H-pyrrolo[3,2-b]pyridin-2-yl)-1H-pyrazolo[3,4-b]pyridine], the negative logarithm of the EC50 (pEC50) in the experiment with SW480 colon cancer cells was 5.40; in the experiment with IL-6, 5.05; in experiment [1], 6.13; in experiment [2] it was 5.96.

In the case of `CCCC(=O)Nc1cncc(-c2cnc3[nH]nc(-c4cc5c(-c6ccncc6)cccc5[nH]4)c3c2)c1` [Compound 110, N-(5-(3-(4-(Pyridin-4-yl)-1H-indol-2-yl)-1H-pyrazolo[3,4-b]pyridin-5-yl)pyridin-3-yl)butyramide], the pEC50 was 5.65 in the experiment on SW480 colon cancer cells, 7.35 with IL-6, 5.68 in experiment [1] and 6.44 in experiment [2].

Turning to `CN(C)c1cncc(-c2cnc3[nH]nc(-c4cc5ncccc5[nH]4)c3c2)c1` [Compound 485, 5-(3-(1H-Pyrrolo[3,2-b]pyridin-2-yl)-1H-pyrazolo[3,4-b]pyridin-5-yl)-N,N-dimethylpyridin-3-amine], the pEC50 is 5.46 in the experiment with SW480 colon cancer cells, 5.13 in the experiment with IL-6, 5.55 in experiment [1] and 5.42 in experiment [2].

As to `CN(C)Cc1cncc(-c2cnc3[nH]nc(-c4cc5c(N6CCCCC6)cccc5[nH]4)c3c2)c1` [Compound 157, N,N-Dimethyl-1-(5-(3-(4-(piperidin-1-yl)-1H-indol-2-yl)-1H-pyrazolo[3,4-b]pyridin-5-yl)pyridin-3-yl)methanamine], the negative logarithm of the EC50 (pEC50) is 5.73 in the experiment on SW480 colon cancer cells, 5.64 in the experiment with IL-6, 5.91 in experiment [1] and 5.84 in experiment [2].

Source of the values: patent US20180214428A1, “3-(1H-INDOL-2-YL)-1H-PYRAZOLO[3,4-B]PYRIDINES AND THERAPEUTIC USES THEREOF” (Samumed, LLC, priority 2015, published 2018).
